Reference: patent US20240400547A1, “2,6-PIPERIDINEDIONE COMPOUND AND APPLICATION THEREOF” (MEDSHINE DISCOVERY INC., priority 2021, published 2024)
Where a name gives a salt, the structure may show the parent alone.

Test system: human B-cell lymphoma OCI-LY10 cells
Experiment: In vivo efficacy in SCID mouse xenograft model of human B-cell lymphoma OCI-LY10 cells
Design: species or system SCID mice
Settings: for Tumor volume (Day 0): Day 0 (grouping, baseline); for Tumor volume (Day 0) / Tumor volume (Day 28): average, SEM in next grid line
Protocol: The study evaluates the antitumor effect of the test compounds using a SID mouse xenograft model of human B-cell lymphoma OCI-LY10 cells.
• 1. Experimental animals: SCID mice, female, 6 to 8 weeks old, weighing 17 to 20 g. Beijing Vital River Laboratory Animal Technology Co., Ltd. • 2. Cell line: The human B-cell lymphoma OCI-LY10 cell line was purchased from Nanjing Cobioer Biosciences Co. Ltd (Cat. No CBP60558).
OCI-LY10 cells were cultured in IMDM medium containing 20% FBS and maintained in a 37° C. incubator with 5% CO2 and saturated humidity. Log phase OCI-LY10 cells were collected, resuspended in IMDM basic medium, and mixed 1:1 with Matrigel. The cell concentration was adjusted to 4×10^7/mL. Under sterile conditions, 0.1 mL of the cell suspension was inoculated subcutaneously into the right flank of SCID mice, with an inoculation concentration of 4×10^6/0.1 mL/mouse.
For the pharmacological experiment, once the tumors reached a certain size, animals with tumors that were either too large, too small, or irregularly shaped were eliminated. Animals with tumor volumes between 167.65 and 231.29 mm^3 were selected. Based on tumor volume, the animals were divided into groups using a random grouping method, with each group consisting of six mice, and the average tumor volume was approximately 201.15 mm^3. The day of grouping was designated as Day 0, and dosing began according to the body weight of the animals. The pharmacological study period lasted for 28 days, with dosing once a day and a 24-hour interval between doses. Intragastric administration was used for administration. During the experiment, the body weight and tumor size of the animals were measured twice a week. Clinical symptoms were observed and recorded daily.
The test compounds were administered at doses of 10 mg/kg, 30 mg/kg, and 100 mg/kg, with a solvent composition of 10% DMSO/10% Solutol/80% H2O. The formula for calculating tumor volume (TV) was: 1/2×a×b^2, where a and b were the measured length and width of the tumor, respectively. The formula for calculating the Tumor Growth Inhibition (TGI) rate was: TGI (%)=[(1−(average tumor volume at the end of administration in a treatment group−average tumor volume at the beginning of administration in this treatment group))/(average tumor volume at the end of treatment in the vehicle control group−average tumor volume at the beginning of treatment in the vehicle control group)]×100%. Relative Tumor Proliferation rate T/C (%): the calculation formula was as follows: T/C %=TRTV/CRTV×100% (TRTV: average RTV of the treatment group; CRTV: average RTV of the negative control group). According to the results of tumor measurement, the relative tumor volume (RTV) was calculated, and the calculation formula was RTV=Vt/V0, where V0 was the tumor volume measured at the time of group administration (i.e. Day 0), VT was the tumor volume at a certain measurement, and TRTV and CRTV were taken from the same day's data.
In this study, experimental data were presented in Mean±SEM.
Statistical analysis was performed using IBM SPSS Statistics software based on the RTV data at the end of the experiment. For comparisons between two groups, a T test was used. For comparisons among three or more groups, one-way ANOVA was utilized. If the variance was homogenous (no significant difference in F value), Tukey's method was applied for analysis. If the variance was heterogeneous (significant difference in F value), the Games-Howell method was used for testing. A p-value of […] was considered statistically significant.

[1] = 10 mg/kg intragastric once a day
[2] = 30 mg/kg intragastric once a day
[3] = 100 mg/kg intragastric once a day

With `O=C1CCC(c2noc3ccc4c(NC(=O)CN5CCN(C[C@H]6CC[C@H](n7cc(NC(=O)c8coc(-c9ccnc(NCC%10CC%10)c9)n8)c(C(F)F)n7)CC6)CC5)cccc4c23)C(=O)N1` (stereo partly drawn) [Hydrochloride of WX014] the “Tumor volume (Day 0)” value [1] was 202.43 mm^3, the “T/C (%) (Day 28)” value [1] was 47.40% and the “TGI (%) (Day 28)” value [1] was 60.43%. For the same compound, the “Tumor volume (Day 28)” value [1] was 685.61 mm^3, the “Tumor volume (Day 0)” value [2] was 199.80 mm^3 and the “T/C (%) (Day 28)” value [2] was 23.07%. The “TGI (%) (Day 28)” value [2] was 89.94%, the “Tumor volume (Day 28)” value [2] was 322.68 mm^3 and the “Tumor volume (Day 0)” value [3] was 199.75 mm^3. For the same compound, the “T/C (%) (Day 28)” value [3] was 12.80%, the “TGI (%) (Day 28)” value [3] was 100.96% and the “Tumor volume (Day 28)” value [3] was 188.01 mm^3.
